According to ChEMBL document CHEMBL6134863, “Novel Mitochondria-Targeted Asymmetric Heptamethine Cyanine Dye for Cancer Targeted NIR Imaging and Potent Necrosis and Senescence Induction with Prolonged Retention” (J Med Chem, 2025):
Calls of active or inactive are those of the source. The rule behind the calls is not given here.

Key:
[1] = Cytotoxicity against human Primary lung fibroblast assessed as decrease in cell viability up to 5 uM incubated for 24 hrs by CCK-8 assay; format: toxicity, cell-based
[2] = Antioxidant activity of compound in presence of […]; format: functional
[3] = Stability of compound in DMSO-H2O incubated for 150 mins by absorbance based analysis; format: physicochemical; details: 2.5 h
[4] = Antioxidant activity of compound in presence of Fe3+; format: functional
[5] = Toxicity in BALB/c mouse implanted with mouse 4T1 cells assessed as liver damage at 5 mg/kg, iv measured for 11 days by H and E staining based analysis; format: organism-based; details: in vivo, 264 h, time 11 day
[6] = Drug accumulation in BALB/c mouse tumor implanted with mouse 4T1 cells assessed as increase in fluorescence intensity at 0.5 mg/kg, iv measured at 48 hrs by imaging based analysis; format: ADME, organism-based, Neoplasm; details: in vivo
[7] = Antioxidant activity of compound in presence of HSO3-; format: functional
[8] = Drug uptake in mouse 4T1 cells assessed as increase in red fluorescence intensity at 5 uM incubated for 30 mins by CY7 staining based microscopic analysis; format: ADME, cell-based; details: 4t1, 0.5 h
[9] = test system: NCI-H226; assay: Cytotoxicity against human NCI-H226 assessed as decrease in cell viability up to 10 uM incubated for 24 hrs by CCK-8 assay; format: functional, cell-based
[10] = test system: NIH3T3; assay: Cytotoxicity against mouse 3T3 cells assessed as decrease in cell viability up to 5 uM incubated for 24 hrs by CCK-8 assay; format: toxicity, cell-based; details: nih3t3, 24 h
[11] = Antioxidant activity of compound in presence of RNS; format: functional
[12] = Drug accumulation in BALB/c mouse plasma implanted with mouse 4T1 cells assessed as increase in fluorescence intensity at 0.5 mg/kg, iv measured at 96 to 120 hrs by imaging based analysis; format: ADME, organism-based; details: in vivo, time 96-120 hrs
[13] = Acute toxicity in BALB/c mouse implanted with mouse 4T1 cells assessed as change in body weight at 5 mg/kg, iv measured for 11 days; format: organism-based; details: in vivo, 264 h, time 11 day
[14] = Antioxidant activity of compound in presence of Ca2+; format: functional
[15] = Antioxidant activity of compound in presence of ClO-; format: functional
[16] = Antioxidant activity of compound in presence of Br-; format: functional
[17] = test system: NCI-H250; assay: Antitumor activity against human […] cells xenografted in BALB/c mouse assessed as tumor growth inhibition 0.5 mg/kg, iv measured for 5 days; format: functional, organism-based; details: time 5.0 day
[18] = Antioxidant activity of compound in presence of H2O2-; format: functional
[19] = Antioxidant activity of compound in presence of ONOO-; format: functional
[20] = Toxicity in BALB/c mouse implanted with mouse 4T1 cells assessed as survival rate at 5 mg/kg, iv measured for 11 days; format: organism-based; details: in vivo, time 11 day
[21] = Ratio of drug level in tumor to muscle of BALB/c mouse implanted with mouse 4T1 cells at 0.5 mg/kg, iv measured at 12 to 24 hrs; format: ADME, organism-based; details: in vivo, time 12-24 hrs
[22] = Stability of compound at 30 degreeC by thermogravimetric analysis; format: physicochemical
[23] = test system: NCI-H226; assay: Induction of ROS production in human NCI-H226 cells at 5 uM incubated for 24 hrs by flow cytometry analysis; format: functional, cell-based
[24] = test system: 4T1; assay: Antitumor activity against mouse 4T1 cells implanted in BALB/c mouse assessed as tumor growth inhibition 5 mg/kg, iv measured for 11 days; format: functional; details: 4T1, 264 h, time 11 day, read-out: TGI
[25] = Antioxidant activity of compound in presence of ROS; format: functional
[26] = Drug accumulation in BALB/c mouse plasma xenografted with human NCI-H520 cells assessed as increase in fluorescence intensity at 0.5 mg/kg, iv measured at 96 to 120 hrs by imaging based analysis; format: ADME, organism-based; details: in vivo, time 96-120 hrs
[27] = test system: NCI-H226; assay: Induction of apoptosis in human NCI-H226 cells assessed as late apoptotic cells at 5 uM incubated for 48 hrs by Annexin V-FITC/PI staining based flow cytometry (reference value: 3.61 %); format: functional
[28] = Antioxidant activity of compound in presence of NH4+; format: functional
[29] = test system: Squamous carcinoma cell line; assay: Antitumor activity against patient-derived Squamous carcinoma cell line xenografted in BALB/c mouse assessed as tumor growth inhibition at 0.5 mg/kg, iv measured for 5 days; format: functional, organism-based; details: Homo sapiens, time 5.0 day
[30] = test system: NCI-H226; assay: Induction of apoptosis in human NCI-H226 cells assessed as early apoptotic cells at 5 uM incubated for 48 hrs by Annexin V-FITC/PI staining based flow cytometry (reference value: 2.93 %); format: functional
[31] = Cytotoxicity against human Primary lung fibroblast assessed as decrease in cell viability up to 10 uM incubated for 24 hrs by CCK-8 assay; format: toxicity, cell-based
[32] = Antioxidant activity of compound in presence of HCO3-; format: functional
[33] = Distribution coefficient, logD of compound; format: physicochemical; details: octanol/water
[34] = Drug accumulation in BALB/c mouse tumor implanted with mouse 4T1 cells assessed as increase in fluorescence intensity at 0.5 mg/kg, iv measured at 96 hrs by DAPI staining based fluorescence microscopic analysis; format: ADME, organism-based, Neoplasm; details: in vivo
[35] = test system: NCI-H226; assay: Induction of apoptosis in human NCI-H226 cells assessed as necrotic cells at 5 uM incubated for 48 hrs by Annexin V-FITC/PI staining based flow cytometry (reference value: 0.048 %); format: functional
[36] = Antioxidant activity of compound in presence of Cl-; format: functional
[37] = Drug accumulation in tumor to muscle of BALB/c mouse implanted with mouse 4T1 cells at 0.5 mg/kg, iv measured at 4 to 168 hrs; format: ADME, organism-based; details: in vivo, time 4-168 hrs
[38] = Drug localization in mitochondria of human NCI-H226 cell by MitoTracker Red based NIR confocal microscopic analysis; format: ADME
[39] = test system: NCI-H226; assay: Induction of apoptosis in human NCI-H226 cells assessed as viable cells at 5 uM incubated for 48 hrs by Annexin V-FITC/PI staining based flow cytometry (reference value: 93.4 %); format: functional; details: read-out: Activity
[40] = Antioxidant activity of compound in presence of Glutathione; format: functional
[41] = test system: Mitochondrial membrane; assay: Induction of mitochondrial membrane potential loss in human NCI-H226 cells at 2 uM incubated for 4 hrs by TMRE staining based fluorescence microscopic analysis; format: cell membranes
[42] = Toxicity in BALB/c mouse implanted with patient-derived Squamous carcinoma cell line assessed as change in body weight at 0.5 mg/kg, iv measured for 5 days; format: organism-based; details: in vivo, 120 h, time 5 day
[43] = test system: Mitochondrial membrane; assay: Induction of mitochondrial membrane potential loss in human NCI-H226 cells; format: cell membranes
[44] = test system: NCI-H226; assay: Induction of DNA damage in human NCI-H226 cells assessed as increase in gamma-H2AX level at 5 uM incubated for 24 hrs by immunofluorescence analysis; format: functional, cell-based
[45] = Stability of compound in DMSO-H2O incubated for 1 hr by absorbance based analysis; format: physicochemical
[46] = Antioxidant activity of compound in presence of OH; format: functional
[47] = Photostability of compound in DMSO-H2O incubated for 1 hr irradiated with deuterium lamp by absorbance based analysis; format: physicochemical; details: read-out: Stability

In the case of `CCCN1/C(=C/C=C2\CCCC(/C=C/C3=[N+](Cc4ccc(C(=O)O)cc4)c4ccccc4C3(C)C)=C2Cl)C(C)(C)c2ccccc21.[Br-]`, the Activity [1] was “Non-toxic”, the Activity [2] was “Active” and the Stability [3] was “Stable”. For the same compound, the Activity [4] was “Active”, the Activity [5] was “Non-toxic” and the Drug uptake [6] was “Active”. For the same compound, the Activity [7] was “Active”, the Drug uptake [8] was “Active” and the Activity [9] was “Active”. For the same compound, the Activity [10] was > 80%, the Activity [11] was “Active” and the Drug uptake [12] was “Active”. The Activity [13] was “Non-toxic”, the Activity [14] was “Active” and the Activity [15] was “Active”. For the same compound, the Activity [16] was “Active”, the TGI [17] was “Active” and the Activity [18] was “Active”. The Activity [19] was “Active”, the survival at 264 h [20] was 100% and the Ratio [21] was > 5. The Stability [22] was “Stable”, the Activity [23] was “Active” and the inhibition in vivo at 5 mg/kg [24] was ~60%. For the same compound, the Activity [25] was “Active”, the Drug uptake [26] was “Active” and the Activity [27] was 14%. For the same compound, the Activity [28] was “Active”, the TGI [29] was “Active” and the Activity [30] was 0.82%. The Activity [31] was “Non-toxic”, the Activity [32] was “Active” and the logD [33] was 4.49. The Drug uptake [34] was “Active”, the Activity [35] was 58.9% and the Activity [36] was “Active”. For the same compound, the Drug uptake [37] was “Active”, the Drug uptake [38] was “Active” and the viability at 5 µM [39] was 26.3%. For the same compound, the Activity [40] was “Active”, the Activity [41] was “Active” and the Activity [42] was “Non-toxic”. The Activity [43] was “Active”, the Activity [44] was “Active” and the Stability [45] was “Stable”. The Activity [46] was “Active” and the remaining at 1 h [47] was 95.8%.
